Data: ChEMBL document CHEMBL4406887, “Design and synthesis of biaryloxazolidinone derivatives containing amide or acrylamide moiety as novel antibacterial agents against Gram-positive bacteria” (Bioorg Med Chem Lett, 2019)
Values after ≈ are worked out from the molar mass of the structure shown.

How the values were obtained:
[1] = Stability in artificial gastric acid at 1 mg/ml assessed as residual rate after 2.5 hrs by HPLC analysis relative to control; type: ADME; conditions: read-out: Stability
Staphylococcus aureus [2] = assay: Antibacterial activity against Staphylococcus aureus ATCC 29213 CLSI-based double dilution method; type: functional
[3] = Aqueous solubility of compound; type: physicochemical; conditions: water
[4] = Stability in artificial gastric acid at 1 mg/ml assessed as residual rate after 3 hrs by HPLC analysis relative to control; type: ADME; conditions: read-out: Stability
[5] = Stability in artificial gastric acid at 1 mg/ml assessed as residual rate after 4 hrs by HPLC analysis relative to control; type: ADME; conditions: read-out: Stability
Enterococcus faecalis = assay: Antibacterial activity against linezolid-resistant Enterococcus faecalis CLSI-based double dilution method; type: functional
[6] = Stability in artificial gastric acid at 1 mg/ml assessed as residual rate after 2 hrs by HPLC analysis relative to control; type: ADME; conditions: read-out: Stability
Enterococcus faecium = assay: Antibacterial activity against vancomycin-resistant Enterococcus faecium CLSI-based double dilution method; type: functional
[7] = Stability in artificial gastric acid at 1 mg/ml assessed as residual rate after 3.5 hrs by HPLC analysis relative to control; type: ADME; conditions: read-out: Stability
[8] = Stability in artificial gastric acid at 1 mg/ml assessed as residual rate measured immediately by HPLC analysis relative to control; type: ADME; conditions: read-out: Stability
[9] = Stability in artificial gastric acid at 1 mg/ml assessed as residual rate after 30 mins by HPLC analysis relative to control; type: ADME; conditions: read-out: Stability
Staphylococcus aureus [10] = assay: Antibacterial activity against methicillin-resistant Staphylococcus aureus CLSI-based double dilution method; type: functional
[11] = Stability in artificial gastric acid at 1 mg/ml assessed as residual rate after 1 hr by HPLC analysis relative to control; type: ADME; conditions: read-out: Stability
Staphylococcus aureus [12] = assay: Antibacterial activity against methicillin-sensitive Staphylococcus aureus CLSI-based double dilution method; type: functional
[13] = Stability in artificial gastric acid at 1 mg/ml assessed as residual rate after 1.5 hrs by HPLC analysis relative to control; type: ADME; conditions: read-out: Stability

Structure (SMILES)	remaining at 2.5 h, 1 mg/ml [1] [%]	MIC (Staphylococcus aureus [2]) [µg/mL]	solubility [3] [µg/mL]	remaining at 3 h, 1 mg/ml [4] [%]	remaining at 4 h, 1 mg/ml [5] [%]	MIC (Enterococcus faecalis) [µg/mL]	remaining at 2 h, 1 mg/ml [6] [%]	MIC (Enterococcus faecium) [µg/mL]	remaining at 3.5 h, 1 mg/ml [7] [%]	remaining at 0 h, 1 mg/ml [8] [%]	remaining at 0.5 h, 1 mg/ml [9] [%]	MIC (Staphylococcus aureus [10]) [µg/mL]	remaining at 1 h, 1 mg/ml [11] [%]	MIC (Staphylococcus aureus [12]) [µg/mL]	remaining at 1.5 h, 1 mg/ml [13] [%]
CC(=O)NC[C@H]1CN(c2ccc(-c3ccc(/C=N/N4CCN(C)CC4)cc3)c(F)c2)C(=O)O1	0	0.0675 (≈ 0.149 µM)	71 (≈ 157 µM)	0	0	0.0675 (≈ 0.149 µM)	16.1	0.0675 (≈ 0.149 µM)	0	100	97.5	0.0675 (≈ 0.149 µM)	40.7	0.0675 (≈ 0.149 µM)	26.3
CC(=O)NC[C@H]1CN(c2ccc(-c3ccc(/C=C/C(=O)N4CCNCC4)cc3)c(F)c2)C(=O)O1	91.5	0.5 (≈ 1.07 µM)	115 (≈ 247 µM)	90.9	88.7	0.25 (≈ 0.536 µM)	91.7	0.5 (≈ 1.07 µM)	89.7	100	94.9	0.5 (≈ 1.07 µM)	95.2	0.5 (≈ 1.07 µM)	94.9
CC(=O)NC[C@H]1CN(c2ccc(-c3ccc(C(=O)N4CCSCC4)cc3)c(F)c2)C(=O)O1	–	1 (≈ 2.19 µM)	–	–	–	4 (≈ 8.74 µM)	–	2 (≈ 4.37 µM)	–	–	–	2 (≈ 4.37 µM)	–	2 (≈ 4.37 µM)	–
CC(=O)NC[C@H]1CN(c2ccc(-c3ccc(/C=C/C(=O)N4CCSCC4)cc3)c(F)c2)C(=O)O1	–	1 (≈ 2.07 µM)	–	–	–	2 (≈ 4.14 µM)	–	2 (≈ 4.14 µM)	–	–	–	2 (≈ 4.14 µM)	–	1 (≈ 2.07 µM)	–
CC(=O)NC[C@H]1CN(c2ccc(-c3ccc(/C=C/C(=O)NC4CCCC4)cc3)c(F)c2)C(=O)O1	–	1 (≈ 2.15 µM)	–	–	–	1 (≈ 2.15 µM)	–	1 (≈ 2.15 µM)	–	–	–	1 (≈ 2.15 µM)	–	1 (≈ 2.15 µM)	–
CC(=O)NC[C@H]1CN(c2ccc(-c3ccc(/C=C/C(=O)N4CCCCC4)cc3)c(F)c2)C(=O)O1	–	1 (≈ 2.15 µM)	–	–	–	1 (≈ 2.15 µM)	–	1 (≈ 2.15 µM)	–	–	–	1 (≈ 2.15 µM)	–	1 (≈ 2.15 µM)	–
CC(=O)NC[C@H]1CN(c2ccc(-c3ccc(C(=O)N4CCNCC4)cc3)c(F)c2)C(=O)O1	–	1 (≈ 2.27 µM)	–	–	–	1 (≈ 2.27 µM)	–	1 (≈ 2.27 µM)	–	–	–	1 (≈ 2.27 µM)	–	1 (≈ 2.27 µM)	–
CC(=O)NC[C@H]1CN(c2ccc(-c3ccc(C(=O)N4CCCCC4)cc3)c(F)c2)C(=O)O1	–	1 (≈ 2.28 µM)	–	–	–	1 (≈ 2.28 µM)	–	1 (≈ 2.28 µM)	–	–	–	1 (≈ 2.28 µM)	–	1 (≈ 2.28 µM)	–
CC(=O)NC[C@H]1CN(c2ccc(-c3ccc(/C=C/C(=O)N4CCCC4)cc3)c(F)c2)C(=O)O1	–	1 (≈ 2.21 µM)	–	–	–	1 (≈ 2.21 µM)	–	1 (≈ 2.21 µM)	–	–	–	1 (≈ 2.21 µM)	–	1 (≈ 2.21 µM)	–
CC(=O)NC[C@H]1CN(c2ccc(-c3ccc(/C=C/C(=O)N4CCC(C)CC4)cc3)c(F)c2)C(=O)O1	–	1 (≈ 2.09 µM)	–	–	–	1 (≈ 2.09 µM)	–	1 (≈ 2.09 µM)	–	–	–	1 (≈ 2.09 µM)	–	1 (≈ 2.09 µM)	–
CC(=O)NC[C@H]1CN(c2ccc(-c3ccc(C(=O)NC4CC4)cc3)c(F)c2)C(=O)O1	–	1 (≈ 2.43 µM)	–	–	–	1 (≈ 2.43 µM)	–	1 (≈ 2.43 µM)	–	–	–	1 (≈ 2.43 µM)	–	1 (≈ 2.43 µM)	–
CC(=O)NC[C@H]1CN(c2ccc(-c3ccc(C(=O)N4CCOCC4)cc3)c(F)c2)C(=O)O1	–	2 (≈ 4.53 µM)	–	–	–	2 (≈ 4.53 µM)	–	2 (≈ 4.53 µM)	–	–	–	2 (≈ 4.53 µM)	–	2 (≈ 4.53 µM)	–
CC(=O)NC[C@H]1CN(c2ccc(-c3ccc(/C=C/C(=O)N4CCOCC4)cc3)c(F)c2)C(=O)O1	–	2 (≈ 4.28 µM)	–	–	–	4 (≈ 8.56 µM)	–	2 (≈ 4.28 µM)	–	–	–	2 (≈ 4.28 µM)	–	2 (≈ 4.28 µM)	–
CC(=O)NC[C@H]1CN(c2ccc(-c3ccc(C(=O)N4CCCC4)cc3)c(F)c2)C(=O)O1	–	1 (≈ 2.35 µM)	–	–	–	2 (≈ 4.7 µM)	–	2 (≈ 4.7 µM)	–	–	–	1 (≈ 2.35 µM)	–	1 (≈ 2.35 µM)	–
CC(=O)NC[C@H]1CN(c2ccc(-c3ccc(/C=C/C(=O)NC4CC4)cc3)c(F)c2)C(=O)O1	–	1 (≈ 2.29 µM)	–	–	–	1 (≈ 2.29 µM)	–	1 (≈ 2.29 µM)	–	–	–	1 (≈ 2.29 µM)	–	1 (≈ 2.29 µM)	–
CC(=O)NC[C@H]1CN(c2ccc(-c3ccc(C(=O)NC4CCCC4)cc3)c(F)c2)C(=O)O1	–	1 (≈ 2.28 µM)	–	–	–	1 (≈ 2.28 µM)	–	1 (≈ 2.28 µM)	–	–	–	1 (≈ 2.28 µM)	–	1 (≈ 2.28 µM)	–
CC(=O)NC[C@H]1CN(c2ccc(N3CCOCC3)c(F)c2)C(=O)O1 [LINEZOLID]	–	1 (≈ 2.96 µM)	–	–	–	> 16	–	2 (≈ 5.93 µM)	–	–	–	1 (≈ 2.96 µM)	–	1 (≈ 2.96 µM)	–
CC(=O)NC[C@H]1CN(c2ccc(-c3ccc(CNCc4cnn[nH]4)cc3)c(F)c2)C(=O)O1 [RADEZOLID]	–	0.5 (≈ 1.14 µM)	–	–	–	0.5 (≈ 1.14 µM)	–	0.5 (≈ 1.14 µM)	–	–	–	0.5 (≈ 1.14 µM)	–	0.5 (≈ 1.14 µM)	–
